Tests used:
Yellow Mealworm Larvae = assay: Field trial, topical application; assay type: in vivo; parameters: key: 0 = 0-10% mortality, 9 = 91-100% mortality (0-9 scale)
Outline: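 1 μL benzimidazole solution of set microgram content applied topically to larvae or adults. Mortality read at 24, 48 and 72 h where applicable, rated 0-9 (0 = 0-10%, 9 = 91-100%); values are average mortality per concentration.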

Oriental Cockroach = assay: Oriental Roach Test; assay type: in vivo, Blatta orientalis (Orthoptera); conditions: 24 h
Outline: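 Ten late-instar (3-4 month) nymphs per cage, held at 70°-80° F., sprayed with 5 ml of insecticide formulation at a specified amount. Cockroaches kept unfed and unwatered; mortality counted 24 hours post-spray, with insects staying on the cage bottom after light shaking scored dead.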

Southern Armyworm = Southern Armyworm Test; assay type: in vivo, Prodenia eridania (Lepidoptera); conditions: 48 h
Method: Ten uniform Southern armyworm larvae about 1-1.5 cm. in length, grown on Henderson lima beans, are placed on excized bean leaves in petri dishes. The bean leaves are obtained and sprayed with the insecticide in the same way as are the snap bean leaves in the Mexican bean beetle test. The reference standards in this instance are leaves sprayed with 5 ml. 100 ppm DDT solution. Mortality counts are made 48 hours after spraying and again moribund larvae are counted as dead. Missing larvae which have probably been eaten are considered alive. The same rating scale is used as in the Mexican bean beetle test.

Bean Leaf Beetle = assay: Field trial, stomach poison test; assay type: in vivo
Outline: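 Stomach-poison feeding test on leaves taken from the infested plant and treated by atomizer spraying at 10 psi or by dipping, then air-dried. Dishes hold five or ten insects, with one or two replicates per rate; reported values average mortality on a 0 to 9 rating scale, read at 24, 48 and 72 hours.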

Boll Weevil = assay: Field trial (first summer), topical; assay type: in vivo, Anthonomus grandis
Outline: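 Field trial from the first summer in which 1 µl of test solution holding a set number of micrograms of benzimidazole was applied topically to larvae or adult insects. Mortality at a given route and concentration was scored on a 0–9 scale.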

Two-spotted Spider Mite = Two-spotted Spider Mite test; assay type: in vivo, Tetranychus urticae (Acarina); conditions: 48 h
Method: The procedure in this test is the same as that in the previous aphid test, except that about 100 two-spotted spider mites from a stock colony raised on squash plants are transferred to a cut squash cotyledon. The mortality is estimated 48 hours after spraying. The same rating scale is used.

Mexican Bean Beetle = Mexican Bean Beetle Test; assay type: in vivo, Epilachna varivestis (Coleoptera); conditions: 48 h
Outline: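 Snap bean leaves were sprayed on both surfaces with test formulation at a pre-determined level, dried, then infested with ten third-instar Mexican bean beetle larvae per leaf. Mortality (moribund counted as dead) and feeding were scored after 48 h on a rating scale. Malathion at 500 ppm served as reference.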

Melon Aphid = Melon Aphid Test; assay type: in vivo, Aphis gossypii (Hemiptera); conditions: 24 h
From the text: Four blue hubbard squash seeds are planted per container in vermiculite and the containers watered from the bottom. After 6 days, the two weakest plants are cut off and one cotyledon and the primary leaves are removed from each of the two remaining plants. The remaining cotyledon is infested with 100 melon aphids from a stock colony by pinning the cotyledon against an aphid-infested squash cotyledon from the colony and allowing the aphids to transfer. After transfer, the colony leaf is removed. Forty-eight hours later, the infested leaves are sprayed to wetting with formulations containing graded amounts of the insecticide using a DeVilbiss atomizer at 10 psi held at 12-15 inches from the plant. Controls consist of two infested, unsprayed squash plants and two infested plants sprayed to wetting with a formulation containing 100 ppm malathion as a reference standard. The mortality is estimated 24 hours after spraying by observation using a 10 power dissecting microscope. The same rating scale is used as before.

Squash Bug Adults = assay: Field trial, contact poison test; assay type: in vivo; parameters: key: 0-9 rating: 0 = 0-10% mortality, 9 = 91-100% mortality
Outline: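 Each infested plant sits in a water-filled bottle to prevent wilting, and the test compound is then atomized onto it at 10 psi at various concentrations. Falling dead insects are collected, and mortality is rated 0 (0-10%) to 9 (91-100%) at up to 72 h.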

| Compound | average mortality rating (Yellow Mealworm Larvae; 0.03 μg/μl) | average mortality rating (Yellow Mealworm Larvae; 0.07 μg/μl) | average mortality rating (Yellow Mealworm Larvae; 0.15 μg/μl) | mortality rating (Oriental Cockroach; 500 ppm) | mortality rating (Southern Armyworm; 500 ppm) | mortality rating (Southern Armyworm; 1000 ppm) | average mortality rating (Bean Leaf Beetle; 10 ppm) | average mortality rating (Bean Leaf Beetle; 25 ppm) | average mortality rating (Bean Leaf Beetle; 50 ppm) | mortality rating (Two-spotted Spider Mite; 10 ppm) | mortality rating (Mexican Bean Beetle; 5 ppm) | mortality rating (Mexican Bean Beetle; 10 ppm) | mortality rating (Melon Aphid; 100 ppm) | average mortality rating (Squash Bug Adults; 125 ppm) | average mortality rating (Squash Bug Adults; 250 ppm) | average mortality rating (Squash Bug Adults; 500 ppm) | average mortality rating (Squash Bug Adults; 750 ppm) | mortality rating (Oriental Cockroach; 50 ppm) | mortality rating (Oriental Cockroach; 100 ppm) | mortality rating (Oriental Cockroach; 250 ppm) | further results |
| --- | --- | --- | --- | --- | --- | --- | --- | --- | --- | --- | --- | --- | --- | --- | --- | --- | --- | --- | --- | --- | --- |
| CCCCCCOC(=O)n1c(C(F)(F)F)nc2c([N+](=O)[O-])cc(C(F)(F)F)cc21 [E, n-hexyl 2,6-bis(trifluoromethyl)-4-nitro-1-benzimidazolecarboxylate] | 2 | 3 | 4 | 8.5 | 5.0 | 7.5 | 0 (0-10 percent) | 1 | 0 (0-10 percent) | 8.5 | 2.5 | 7.5 | 9.5 | 0 (0-10 percent) | 2 | 3 | 6 |  |  |  | insect mortality rating (Boll Weevil; .15625 μg/μl): 9 (91-100 percent mortality); mortality rating (Two-spotted Spider Mite; 5 ppm): .5; mortality rating (Melon Aphid; 5 ppm): 1.5 |
| mixture of methyl 2,6-bis(trifluoromethyl)-4-nitro-1-benzimidazolecarboxylate and methyl 2,5-bis(trifluoromethyl)-7-nitro-1-benzimidazolecarboxylate | 2 | 3 | 6 | 9 (91-100) |  | 1 (11-20) | 1 | 0 (0-10 percent) | 1 | 3 (31-40) | 0 (0-10) | 9 (91-100) | 4 (41-50) | 0 (0-10 percent) | 0 (0-10 percent) | 2 | 3 | 0 (0-10) | 0 (0-10) | 5.5 | mortality rating (Oriental Cockroach; 1000 ppm): 9 (91-100); insect mortality rating (Boll Weevil; .078125 μg/μl): 9 (91-100 percent mortality); mortality rating (Two-spotted Spider Mite; 25 ppm): 4 (41-50); mortality rating (Two-spotted Spider Mite; 50 ppm): 9 (91-100); mortality rating (Two-spotted Spider Mite; 100 ppm): 6 (61-70); mortality rating (Two-spotted Spider Mite; 250 ppm): 9 (91-100); mortality rating (Two-spotted Spider Mite; 500 ppm): 9 (91-100); mortality rating (Two-spotted Spider Mite; 1000 ppm): 9 (91-100); mortality rating (Mexican Bean Beetle; 25 ppm): 9 (91-100); mortality rating (Mexican Bean Beetle; 50 ppm): 9 (91-100); mortality rating (Mexican Bean Beetle; 100 ppm): 9 (91-100); mortality rating (Mexican Bean Beetle; 250 ppm): 9 (91-100); mortality rating (Mexican Bean Beetle; 500 ppm): 9 (91-100); mortality rating (Mexican Bean Beetle; 1000 ppm): 9 (91-100); mortality rating (Melon Aphid; 25 ppm): 0 (0-10); mortality rating (Melon Aphid; 50 ppm): 2 (21-30); mortality rating (Melon Aphid; 250 ppm): 9 (91-100); mortality rating (Melon Aphid; 500 ppm): 9 (91-100); mortality rating (Melon Aphid; 1000 ppm): 9 (91-100) |
| mixture of phenyl 2,6-bis(trifluoromethyl)-4-nitro-1-benzimidazolecarboxylate and phenyl 2,5-bis(trifluoromethyl)-1-benzimidazolecarboxylate | 3 | 3 | 6 | 6.5 | 1 (11-20) | 1 (11-20) | 1 | 0 (0-10 percent) | 0 (0-10 percent) | 5.5 |  | 4 (41-50) | 8 (81-90) | 2 | 2 | 6 | 8 | 0 (0-10) | .5 | 7 (71-80) | mortality rating (Oriental Cockroach; 1000 ppm): 5 (51-60); mortality rating (Southern Armyworm; 250 ppm): 1 (11-20); insect mortality rating (Boll Weevil; .078125 μg/μl): 9 (91-100 percent mortality); mortality rating (Two-spotted Spider Mite; 25 ppm): 2 (21-30); mortality rating (Two-spotted Spider Mite; 50 ppm): 8 (81-90); mortality rating (Two-spotted Spider Mite; 100 ppm): 9 (91-100); mortality rating (Two-spotted Spider Mite; 250 ppm): 9 (91-100); mortality rating (Two-spotted Spider Mite; 500 ppm): 9 (91-100); mortality rating (Two-spotted Spider Mite; 1000 ppm): 9 (91-100); mortality rating (Mexican Bean Beetle; 25 ppm): 3 (31-40); mortality rating (Mexican Bean Beetle; 50 ppm): 7 (71-80); mortality rating (Mexican Bean Beetle; 100 ppm): 9 (91-100); mortality rating (Mexican Bean Beetle; 250 ppm): 9 (91-100); mortality rating (Mexican Bean Beetle; 500 ppm): 9 (91-100); mortality rating (Mexican Bean Beetle; 1000 ppm): 9 (91-100); mortality rating (Melon Aphid; 25 ppm): 0 (0-10); mortality rating (Melon Aphid; 50 ppm): 4 (41-50); mortality rating (Melon Aphid; 250 ppm): 7 (71-80); mortality rating (Melon Aphid; 500 ppm): 8 (81-90); mortality rating (Melon Aphid; 1000 ppm): 6 (61-70) |

From US4122184A, “Benzimidazole insecticides” (priority 1977, dated 1978)
